Molecular target: T1, Ba/F3 cell EGFR Exon20 ins NPH (Homo sapiens, UniProt P00533, INS773NPH)
T1 construct: expressed in transfected cells; host or cells: Ba/F3
Assay: Ba/F3 cell proliferation suppression, EGFR Exon20 ins NPH
Type: cell-based
Conditions: GI50 class; Ba/F3 cell line with NPH inserted at Exon20 of EGFR; 72 hours
Procedure, shortened: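 Growth suppression determined as GI50 following 72 h exposure across 12 concentrations up to 50 um, with viability by luminescent ATP assay (CellTiter-Glo).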

SMILES	Ba/F3 (NPH) Activity
C=CC(=O)Nc1cc(Nc2cc(N3OCC[C@@H]3c3cccc(C)c3F)ncn2)c(OC)cc1N1CCC(N(C)C)CC1 [compound 864, N-(2-(4-(dimethylamino)piperidine-1-yl)-5-((6-((R)-3-(2-fluoro-3-methylphenyl)isoxazolidine-2-yl)pyrimidine-4-yl)amino)-4-methoxyphenyl) acrylamide]	A (GI50 < 50 nM)
C=CC(=O)Nc1cc(Nc2cc(N3OCC[C@@H]3c3ccc(F)cc3F)ncn2)c(OC)cc1N1CCC(N2CCOCC2)CC1 [compound 378, N-(5-((6-((R)-3-(2,4-difluorophenyl)isoxazolidine-2-yl)pyrimidine-4-yl)amino)-4-methoxy-2-(4-morpholinopiperidine-1-yl)phenyl)acrylamide]	A (GI50 < 50 nM)
C=CC(=O)Nc1cc(Nc2cc(N3OCC[C@@H]3Cc3cccc(Cl)c3Cl)ncn2)c(OC)cc1N1CCC(N2CCOCC2)CC1 [compound 979, N-(5-((6-((S)-3-(2,3-dichlorobenzyl)isoxazolidine-2-yl)pyrimidine-4-yl)amino)-4-methoxy-2-(4-morpholinopiperidine-1-yl)phenyl)acrylamide]	A (GI50 < 50 nM)
C=CC(=O)Nc1cc(Nc2cc(N3OCC[C@@H]3c3cccc(Cl)c3Cl)ncn2)c(OC)cc1N1CCC(N(C)CCN(C)C)CC1 [compound 613, N-(5-((6-((R)-3-(2,3-dichlorophenyl)isoxazolidine-2-yl)pyrimidine-4-yl)amino)-2-(4-((2-(dimethylamino)ethyl) (methyl)aino)piperidine-1-yl)-4-methoxyphenyl) acrylamide]	B (50 nM ≤ GI50 < 500 nM)
C=CC(=O)Nc1cc(Nc2cc(N3OCC[C@@H]3c3ccc(Cl)c(Cl)c3F)ncn2)c(OC)cc1N1CCC(N2C[C@H]3C[C@@H]2CO3)CC1 [Example 268, N-(2-(4-((1R,4R)-2-oxa-5-azabicyclo[2.2.1]heptane-5-yl)piperidine-1-yl)-5-((6-((R)-3-(3,4-dichloro-2-fluorophenyl)isoxazolidine-2-yl)pyrimidine-4-yl)amino)-4-methoxyphenyl) acrylamide]	A (GI50 < 50 nM)
C=CC(=O)Nc1cc(Nc2cc(N3OCC[C@@H]3c3ccc(F)c(Cl)c3F)ncn2)c(OC)cc1N1CCN(C)[C@@H](C)C1 [compound 665, N-(5-((6-((R)-3-(3-chloro-2,4-difluorophenyl)isoxazolidine-2-yl)pyrimidine-4-yl)amino)-2-((S)-3,4-dimethylpiperazine-1-yl)-4-methoxyphenyl) acrylamide]	B (50 nM ≤ GI50 < 500 nM)
C=CC(=O)Nc1cc(Nc2cc(N3OCC[C@@H]3c3cccc(OC)c3)ncn2)c(OC)cc1N(C)CCN(C)C [Example 24, N-(2-((2-(dimethylamino)ethyl) (methyl)amino)-4-methoxy-5-((6-((R)-3-(3-methoxyphenyl)isoxazolidine-2-yl)pyrimidine-4-yl)amino)phenyl) acrylamide]	A (GI50 < 50 nM)
C=CC(=O)Nc1cc(Nc2cc(N3OCC[C@@H]3Cc3cccnc3)ncn2)c(OC)cc1N1CCC(N2CCN(C3CC3)[C@H](C)C2)CC1 [compound 1056, N-(2-(4-((R)-4-cyclopropyl-3-methylpiperazine-1-yl)piperidine-1-yl)-4-methoxy-5-((6-((S)-3-(pyridine-3-ylmethyl)isoxazolidine-2-yl)pyrimidine-4-yl)amino)phenyl)acrylamide]	B (50 nM ≤ GI50 < 500 nM)
C=CC(=O)Nc1cc(Nc2cc(N3OCC[C@@H]3c3cc(F)cc(F)c3)ncn2)c(OC)cc1N1CCN(C)[C@H](C)C1 [compound 917, N-(5-((6-((R)-3-(3,5-difluorophenyl)isoxazolidine-2-yl)pyrimidine-4-yl)amino)-2-((R)-3,4-dimethylpiperazine-1-yl)-4-methoxyphenyl) acrylamide]	A (GI50 < 50 nM)
C=CC(=O)Nc1cc(Nc2cc(N3OCC[C@@H]3c3cccc(F)c3)ncn2)c(OC)cc1N1CCC(N2C[C@@H]3C[C@H]2CN3CC)CC1 [compound 835, N-(2-(4-((1S,4S)-5-ethyl-2,5-diazabicyclo[2.2.1]heptane-2-yl)piperidine-1-yl)-5-((6-((R)-3-(3-fluorophenyl)isoxazolidine-2-yl)pyrimidine-4-yl)amino)-4-methoxyphenyl) acrylamide]	A (GI50 < 50 nM)
C=CC(=O)Nc1cc(Nc2cc(N3OCC[C@@H]3c3ccccc3)ncn2)c(OC)cc1N1C[C@H]2C[C@@H]1CO2 [Example 33, N-(2-((1R,4R)-2-oxa-5-azabicyclo [2.2.1]heptane-5-yl)-4-methoxy-5-((6((R)-3-phenylisoxazolidine-2-yl)pyrimidine-4-yl)amino)phenyl) acrylamide]	A (GI50 < 50 nM)
C=CC(=O)Nc1cc(Nc2cc(N3OCC[C@@H]3c3cccc(Cl)c3)ncn2)c(OC)cc1N1CCC(N(C)C)CC1 [compound 361, N-(5-((6-((R)-3-(3-chlorophenyl)isoxazolidine-2-yl)pyrimidine-4-yl)amino)-2-(4-(dimethylamino)piperidine-1-yl)-4-methoxyphenyl) acrylamide]	A (GI50 < 50 nM)
C=CC(=O)Nc1cc(Nc2cc(N3OCC[C@@H]3c3ccc(Cl)cc3F)ncn2)c(OC)cc1N1CCC(N2CCOCC2)CC1 [compound 455, N-(5-((6-((R)-3-(4-chloro-2-fluorophenyl)isoxazolidine-2-yl)pyrimidine-4-yl)amino)-4-methoxy-2-(4-morpholinopiperidine-1-yl)phenyl)acrylamide]	A (GI50 < 50 nM)
C=CC(=O)Nc1cc(Nc2cc(N3OCC[C@@H]3c3cccc(C#N)c3)ncn2)c(OC)cc1N1CCC(N(C)C)CC1 [compound 394, N-(5-((6-((R)-3-(3-cyanophenyl)isoxazolidine-2-yl)pyrimidine-4-yl)amino)-2-(4-(dimethylamino)piperidine-1-yl)-4-methoxyphenyl) acrylamide]	A (GI50 < 50 nM)
C=CC(=O)Nc1cc(Nc2cc(N3OCC[C@@H]3c3ccc(C)nc3)ncn2)c(OC)cc1N1CCN(CCN(C)C)CC1 [Example 219, N-(2-(4-(2-(dimethylamino)ethyl)piperazine-1-yl)-4-methoxy-5-((6-((R)-3-(6-methylpyridine-3-yl)isoxazolidine-2-yl)pyrimidine-4-yl)amino)phenyl)acrylamide]	B (50 nM ≤ GI50 < 500 nM)
C=CC(=O)Nc1cc(Nc2cc(N3OCC[C@@H]3c3cccc(C(F)(F)F)c3)ncn2)c(OC)cc1N1CCC(N2CCN(C3CC3)[C@H](C)C2)CC1 [compound 942, N-(2-(4-((R)-4-cyclopropyl-3-methylpiperazine-1-yl)piperidine-1-yl)-4-methoxy-5-((6-((R)-3-(3-(trifluoromethyl)phenyl)isoxazolidine-2-yl)pyrimidine-4-yl)amino)phenyl) acrylamide]	A (GI50 < 50 nM)
C=CC(=O)Nc1cc(Nc2cc(N3OCC[C@@H]3c3ccc(Cl)cc3F)ncn2)c(OC)cc1N1CCC(N2C[C@@H](C)O[C@@H](C)C2)CC1 [compound 374, N-(5-((6-((R)-3-(4-chloro-2-fluorophenyl)isoxazolidine-2-yl)pyrimidine-4-yl)amino)-2-(4-((2S,6R)-2,6-dimethylmorpholino)piperidine-1-yl)-4-methoxyphenyl) acrylamide]	A (GI50 < 50 nM)
C=CC(=O)Nc1cc(Nc2cc(N3OCC[C@@H]3c3cc(F)cc(Cl)c3F)ncn2)c(OC)cc1N1CCN(C2CC2)CC1 [compound 939, N-(5-((6-((R)-3-(3-chloro-2,5-difluorophenyl)isoxazolidine-2-yl)pyrimidine-4-yl)amino)-2-(4-cyclopropylpiperazine-1-yl)-4-methoxyphenyl) acrylamide]	B (50 nM ≤ GI50 < 500 nM)
C=CC(=O)Nc1cc(Nc2cc(N3OCC[C@@H]3Cc3ccccc3)ncn2)c(OC)cc1N1CCC(OCCN(CC)CC)CC1 [compound 978, N-(5-((6-((S)-3-benzylisoxazolidine-2-yl)pyrimidine-4-yl)amino)-2-(4-(2-(diethylamino)ethoxy)piperidine-1-yl)-4-methoxyphenyl) acrylamide]	C (500 nM ≤ GI50 < 5000 nM)
C=CC(=O)Nc1cc(Nc2cc(N3OCC[C@@H]3c3cccc(C)c3F)ncn2)c(OC)cc1N1CCC(N2CCC(N(C)C)CC2)CC1 [compound 420, N-(2-(4-(dimethylamino)-[1,4'-bipiperidine]-1'-yl)-5-((6-((R)-3-(2-fluoro-3-methylphenyl)isoxazolidine-2-yl)pyrimidine-4-yl)amino)-4-methoxyphenyl) acrylamide]	A (GI50 < 50 nM)
C=CC(=O)Nc1cc(Nc2cc(N3OCC[C@@H]3c3cccc(C#N)c3)ncn2)c(OC)cc1N1CCC(N2CCN(C3CC3)[C@H](C)C2)CC1 [Example 126, N-(5-((6-((R)-3-(3-cyanophenyl)isoxazolidine-2-yl)pyrimidine-4-yl)amino)-2-(4-((R)-4-cyclopropyl-3-methylpiperazine-1-yl)piperidine-1-yl)-4-methoxyphenyl) acrylamide]	A (GI50 < 50 nM)
C=CC(=O)Nc1cc(Nc2cc(N3OCC[C@@H]3c3ccc(C)nc3)ncn2)c(OC)cc1N1CCN(C2COC2)CC1 [Example 218, N-(4-methoxy-5-((6-((R)-3-(6-methylpyridine-3-yl)isoxazolidine-2-yl)pyrimidine-4-yl)amino)-2-(4-(oxetane-3-yl)piperazine-1-yl)phenyl)acrylamide]	B (50 nM ≤ GI50 < 500 nM)

Reference: patent US12157730B2, “Heteroaryl derivative, method for producing same, and pharmaceutical composition comprising same as effective component” (VORONOI INC., priority 2019, dated 2024)
